Source: PMC11982978, “Cancer hotspot mutations rewire ERK2 specificity by selective exclusion of docking interactions” (The Journal of Biological Chemistry, 2025)
* marks the point of attachment. Biotin = O=C1N[C@H]2[C@H](CS[C@H]2CCCCC(=O)*)N1

Tested on: His6-ERK2 WT
Assay: Radiolabel kinase assay with competing D-peptide
Type: biochemical
Conditions: 10 μM KMT2C D-peptide, WT without peptide = 100.0; for ELK1 WT phosphorylation, Normalized: 0.5 μM GST-ELK1 WT; for ELK1 WT phosphorylation, Normalized / ELK1 ΔD phosphorylation, Normalized: 10 nM ERK2 WT; for ELK1 ΔD phosphorylation, Normalized: 0.5 μM GST-ELK1 ΔD; for GEF-H1 phosphorylation, Normalized: 0.5 μM His6-GEF-H1, 10 nM ERK2 WT
Excerpt: Based on our structural and mutational analysis, we hypothesized that ERK2 CD site mutants should not bind or efficiently phosphorylate validated ERK2 substrates containing an I/L-x-x-R-R D-site motif. We previously reported that while ISG20 interacts physically with ERK2 in cells, it is not an ERK2 substrate in vitro ([15]). […] We previously reported that disruption of the GEF-H1 docking motif reduced its extent of co-immunoprecipitation with ERK2 ([15]). Accordingly, we investigated whether cancer-associated ERK2 mutants were impaired in phosphorylating GEF-H1. […] The level of phosphorylation by CD site mutants was similar to that of WT ERK2 when assayed in the presence of excess competing D-peptide to block docking interactions.
Radiolabel kinase assays were performed as described previously by incubating 0.5 μM MAPK substrate (His6-GEF-H1, GST-ELK1^WT or GST-ELK1^ΔD), 10 nM His6-ERK2 (WT, R133K, D319N or E320K) and 10 μM inhibitor peptide KMT2C where indicated (biotin-RKRSKPKLKLKIIN-amide, Tufts University Core Facility) in reaction buffer (20 mM HEPES, 10 mM MgCl2, 1 mM DTT, 1% DMSO, 10 μM cold ATP, and 0.038 μCi/μl [γ-^32P] ATP) at 30 °C for 2 min. Reactions were quenched by the addition of 4x SDS-PAGE loading buffer and heated to 95 °C for 5 min before SDS-PAGE fractionation. Gels were stained with Coomassie blue, destained, dried, and exposed to a phosphor screen. Radiolabel incorporation was measured with Molecular Imager FX phosphorimager (Bio-Rad), and ^32P signal density (CNT/mm^2) was quantified using QuantityOne Software (Bio-Rad version 11.0.5). All signals were normalized to the vehicle control condition. Raw quantified data are provided in Dataset S3.

For Biotin-RKRSKPKLKLKIIN-NH2 [D-pep], the “ELK1 WT phosphorylation, Normalized” value (Replicate 1) was 66.2, the “ELK1 WT phosphorylation, Normalized” value (Replicate 2) was 52.7 and the “ELK1 WT phosphorylation, Normalized” value (Replicate 3) was 42.6. For the same substance, the “ELK1 ΔD phosphorylation, Normalized” value (Replicate 1) was 107.4, the “ELK1 ΔD phosphorylation, Normalized” value (Replicate 2) was 80.5 and the “ELK1 ΔD phosphorylation, Normalized” value (Replicate 3) was 85.4. The “GEF-H1 phosphorylation, Normalized” value (30 °C 2 min, Replicate 1) was 23.5, the “GEF-H1 phosphorylation, Normalized” value (Replicate 2) was 37.1 and the “GEF-H1 phosphorylation, Normalized” value (Replicate 3) was 54.2.
